Reference: US9551706B2, “Density-based methods for separation of materials, monitoring of solid supported reactions and measuring densities of small liquid volumes and solids” (President and Fellows of Harvard College, priority 2007, dated 2017)

Assays:
[1] = known value; cited from earlier work
[2] = Capillary electrophoresis (Job's plot) binding affinity of the DT3 ligand for Gd^3+ in methanol; conditions: 25° C., 1:1 complex with Gd^3+, read-out: dissociation constant (Kd)
Protocol: FIG. 11 is a plot of peak area of the Gd(DT3) by capillary electrophoresis vs. mole fraction of Gd^3+ and illustrates the Job's plot assay for determination of the stoichiometry of and dissociation constant for Gd(DT3) in methanol.
The binding affinity of the DT3 ligand for Gd^3+ and the stoichiometry of the Gd(DT3) complex was determined using capillary electrophoresis (CE). […] See, FIG. 11. […] Gadolinium(III) chloride (the source of Gd^3+ for these experiments) is insoluble in non-polar organic solvents; the dissociation constants was not measured in these solvents.

[3] = Magnetic susceptibility from levitation of a glass bead in solutions of the paramagnetic salt; type: physicochemical; conditions: four solutions 100-175 mM in 9:1 chlorobenzene-toluene, 23° C.
Protocol: The average magnetic susceptibility for solid Gd(DT3) (in the centimeter-gram-second system of units, cgs (cm^3/mol)) was determined by measuring the magnetic susceptibilities for solutions of Gd(DT3) (χl^SI, International System of Units), and by inputting these values into Equation (3). χl^SI=4πχl^CGS[Gd^3+] (3)
Magnetic susceptibility values were measured for solutions of Gd(DT3) (100-175 mM) in 9:1 chlorobenzene-toluene (23° C.) by levitating a glass bead (ρp=1.0900 g/cm^3) in these solutions (FIG. 12A). This mixture of solvents is adequate because it has a density (ρl=1.082±0.003 g/cm^3) slightly below the density of the glass bead that was used. The vertical position of the glass bead (z) in each solution was determined using a ruler, and the densities of the solutions were measured by weighing 1 mL samples. […]
The remaining variable in Equation (1) that required measuring before the calculation of χl^SI could be completed was the strength of the magnetic field at the surface of the magnet (Bmax). […] This value was determined using solutions of GdCl3 (70-100 mM) with known magnetic susceptibilities and by levitating a glass bead (ρp=1.0200 g/cm^3) in these solutions. […]
The calibrated value for Bmax was used to calculate the χl^SI values for the solutions of Gd(DT3) (using Equation (1) and values for ρl and z that were measured experimentally). […]

[4] = Label-free detection of streptavidin binding to solid-supported biotin by magnetic levitation
From the text: Beads of biotin-labeled PEGA polymer swell in water (unlike polystyrene-based solid supports), have a loading capacity of 0.2 mmol amine/g PEGA, and pores of sufficient size for ˜70 kDa proteins to access the biotin on the interior of the polymer. The sensitivity of detection depends directly on the loading capacity (i.e., surface density of reacting groups) of the beads and the molecular weight of the bound molecules. In initial experiments, precipitation was observed after adding proteins to the aqueous Gd^3+ solution, so a Gd3+·DTPA chelate was used instead.
Binding of streptavidin to solid-supported biotin was detected by incubating ˜20 water saturated polymer beads with 20 μL of 0.19-mM protein dissolved in 40-mM potassium phosphate buffer (pH 7.0). After 15 min the solution, was diluted to 1.5 mL to suspend the beads using 210-mM Gd^3+·DTPA in 40-mM potassium phosphate buffer (pH 7.5), and then added ˜20 more biotin-labeled polymer beads. The solution was mixed gently for 5 s with a spatula, and then the cuvette was inserted along the axis of the magnets. After approximately 30 min, all of the beads had clustered into two separate bands (FIG. 19A), the upper one levitating at the same height as the unlabeled PEGA polymer. […]

Compound: [Cl][Mn][Cl] [MnCl2]
- molar magnetic susceptibility of the solid salt [1]: 14350×10^−6 cm^3/mol

Compound: diethylenetriamine triacetic acid tetradecane [DT3 ligand]
- Kd [2]: 300 nM

Compound: gadolinium(III) diethylenetriamine triacetic acid tetradecane [Gd(DT3)]
- average molar magnetic susceptibility χl^CGS [3]: 0.036±0.003 cm^3/mol

Compound: streptavidin: a 53-kDa protein
- binding to solid-supported biotin (levitation band) ([4]; biotin-labeled PEGA beads, 210-mM Gd^3+·DTPA, 40-mM potassium phosphate buffer): binding of streptavidin to the solid-supported biotin
- non-specific adsorption to unlabeled PEGA polymer (control) ([4]; unlabeled PEGA polymer beads): no obvious non-specific adsorption
